US4363807A, “Cepham compounds” (Fujisawa Pharmaceutical Company, Limited, priority 1978, dated 1982)
≈ marks a conversion by molar mass, not a printed value.

Assays:
[1] = system: Proteus mirabilis 18; experiment: In vitro antibacterial activity, two-fold agar-plate dilution method (MIC), Proteus mirabilis 18; type: cell-based; conditions: heart infusion agar, 37° C., 20 hours, read-out: MIC (minimal inhibitory concentration)
Procedure: (§1) 1. In vitro antibacterial activity: (1) Test method: In vitro antibacterial activity was determined by the two-fold agar-plate dilution method as described below. One loopful of an overnight culture of each test strain in Trypticase soy broth was streaked on heart infusion agar (HI-agar) containing graded concentration of the test compound and incubated at 37° C. for 20 hours. The minimal inhibitory concentration (MIC) was expressed in μg/ml.

[2] = system: Klebsiella pneumoniae 20; experiment: In vitro antibacterial activity, two-fold agar-plate dilution method (MIC), Klebsiella pneumoniae 20; type: cell-based; conditions: heart infusion agar, 37° C., 20 hours, read-out: MIC (minimal inhibitory concentration)
Procedure: as §1

**Q.** For `CO/N=C(\C(=O)NC1C(=O)N2C(C(=O)O)C(=COC(C)=O)CSC12)c1csc(N)n1` (stereo not drawn) [Test compound, 7-[2-(2-Aminothiazol-4-yl)-2-methoxyiminoacetamido]-3-acetoxymethylenecepham-4-carboxylic acid (syn isomer)], which MIC [1] is on record?
**A.** Its MIC is 6.25 µg/mL (≈ 13.7 µM).

**Q.** And the MIC [2]?
**A.** The MIC was 6.25 µg/mL (≈ 13.7 µM).
